{"source": "patent US20040171518A1", "about": "“Compounds for protein stabilization and methods for their use” (Medtronic MiniMed, Inc., priority 2003, published 2004)", "origin": "cited, not measured here", "note": "Like-named read-outs stand apart in the source and are kept apart here."}
{"molecule": "O=C(O)CCC(=O)NCCCCC1NC(=O)C(CCCCNC(=O)CCC(=O)O)NC1=O", "note": "(centres unmarked) [2,5-diketo-3,6-di(4-succinylaminobutyl)piperazine]", "values": [{"measurement": "solubility", "setting": "acidic aqueous solutions", "value": "quite insoluble"}, {"measurement": "solubility", "setting": "weakly alkaline aqueous solution", "value": "readily soluble"}]}
